The source of these data is ChEMBL document CHEMBL4613277, “Improving the Potency of N-Aryl-2,5-dimethylpyrroles against Multidrug-Resistant and Intracellular Mycobacteria” (ACS Med Chem Lett, 2020).

≈ marks a conversion by molar mass, not a printed value.

For test [1], the system named is Mycobacterium tuberculosis. Description: Antimycobacterial activity against multidrug resistance Mycobacterium tuberculosis CCM10.1 assessed as reduction in bacterial growth incubated for 7 days by resazurin based assay. It counts as functional. The conditions noted are these: CCM10.1, 168 h. (In general: The colour change of resazurin is a common sign of viable cells or microbes.)

The test system of test [2] is Mycobacterium tuberculosis. Kind of test: Antimycobacterial activity against multidrug resistance Mycobacterium tuberculosis CCM11.1 assessed as reduction in bacterial growth incubated for 7 days by resazurin based assay. It counts as functional. The conditions noted are these: CCM11.1, 168 h.

`COc1ccc(-n2c(C)cc(CNC3CCCCC3)c2C)cc1`: the MIC – broadly, the smallest concentration in the dilution series that meets the test's criterion for growth inhibition – in test [1] was below 0.000625 µg/mL; in test [2], 0.5 µg/mL (≈ 1.6 µM).
Taken in the same sequence, the figures for `Cc1cc(CN[C@H]2C[C@@H]3CC[C@H]2C3)c(C)n1-c1ccc(Cl)cc1` were 0.0025 µg/mL (≈ 0.0076 µM) and 1 µg/mL (≈ 3.04 µM).
For `Cc1cc(CNC2CCCCC2)c(C)n1-c1ccc(C(C)C)cc1`, the values for the MIC in test [1] and in test [2] were 0.00125 µg/mL (≈ 0.00385 µM) and 0.5 µg/mL (≈ 1.54 µM), respectively.
The corresponding values for `Cc1cc(CNCC2CCCCC2)c(C)n1-c1ccc(Cl)cc1` are below 0.000625 µg/mL and 0.12 µg/mL (≈ 0.363 µM).
